Data on one compound can be found in publication PMC9760738, “Pharmacokinetics, absorption, distribution, metabolism and excretion of the MEK inhibitor zapnometinib in rats” (Frontiers in Pharmacology, 2022).

Some results are limits rather than exact numbers.

A short description of series [1]: Plasma protein binding assay, human plasma. The class given is in vitro ADME. The conditions noted are these: data not shown.
On the set-up of series [2]: method as in Lorusso et al., 2005. The settings on record: acid metabolite after CI-1040 dosing in patients; ref Lorusso et al., 2005; cited from earlier work.
Series [3] is described as follows: QWBA tissue radioactivity, single oral 30 mg/kg, male partially pigmented rats (Group 3); 0.5, 2, 4, 8, 24, 72, 168 h. The class given is in vivo, rat. The method, then:
(§1) The whole-body autoradiography techniques by Ullberg and Larsson was used in this study ([Ullberg and Larsson 1981]). Following a single oral administration of [^14C]-zapnometinib to seven male and seven female partially pigmented rats (Group 3) and four male albino rats (Group 4), one animal per sex (where appropriate) was killed at the following time points post dose: Group 3 (pigmented): 0.5, 2, 4, 8, 24, 72, and 168 h, Group 4 (albino): 2, 24, 72 and 168 h. At sacrifice, each rat was anaesthetized with isoflurane and a blood sample (ca 5 ml) was collected by cardiac puncture into a tube containing K2EDTA anticoagulant. Blood was centrifuged at 2000 ×g for 10 min at 4°C to obtain plasma, which was transferred into plain tubes pending measurement of radioactivity concentration. The blood cells were also retained for analysis.
(§2) The rat carcasses were immediately attached to a plate and frozen in a bath of n-heptane and solid CO2 at ca –80°C and then stored at –20 ± 10°C until taken for sectioning. […] [^14C]-Blood standards containing six different known concentrations of radioactivity were used to construct the calibration line for the quantitative determination of tissue concentrations of radioactivity. […] The electronic images of all sections were analyzed at Labcorp–Huntingdon using a validated image analysis package (Seescan Densitometry software, version 2.0). […]

Series [4] can be described thus: Plasma total radioactivity pharmacokinetics after single oral 30 mg/kg [14C]-zapnometinib, Sprague-Dawley rats (Group 1). The class given is in vivo, rat. The method, then: Oral doses of [^14C]-zapnometinib were administered as a suspension in 5% DMSO (v/v), 30% PEG 400 (v/v) and 7.5% (w/v) Captisol in water at a dose level of 30 mg/kg to male and female rats by gastric intubation at a dose volume of 4 ml/kg body weight. The selected dose level (30 mg/kg) was below the no observed adverse effect level (100 mg/kg), the formulation was selected based on data obtained in other nonclinical studies. The radioactive dose administered to each animal was quantified from the weight (excretion studies only) or volume of dosing formulation given, and its mean measured radioactivity concentration. The weight of test compound administered to each rat was determined from the radioactive dose administered and the specific activity of the test material.
After single oral doses of [^14C]-zapnometinib to three male and three female rats, a blood sample (ca 220 µL) was taken from each animal, via the jugular or tail vein at each of the following time points: 0.25, 0.5, 1, 2, 4, 8, 24, 48, 72, 96, 120 and 168 h after dose administration. All blood samples were delivered into K2EDTA tubes and centrifuged (ca 2000 ×g at 4°C for 10 min) to obtain plasma; blood cells were discarded. After collection of the terminal sample, rats were killed by cervical dislocation and the carcasses discarded.
Radioactivity was measured by liquid scintillation analysis using Wallac® 1409 automatic liquid scintillation counters. Samples were prepared according to the company’s SOP (see Supplementary Methods). Briefly, replicate weighed samples were mixed with Ultima Gold™ scintillation cocktail (PerkinElmer, United States) for the measurement of radioactivity. Radioactivity in amounts less than twice that of the background concentration in the sample under investigation was below the limit of accurate quantification (BLQ).
Weight, volume, and radioactivity concentration (liquid scintillation analysis) results relating to the analysis of biological samples generated during this study were acquired and processed using DEBRA, a Laboratory Information Management System (v 5.5.4). Pharmacokinetic parameters were calculated using the computer program Phoenix™ WinNonlin version 8.3 (Pharsight Corporation, United States). Areas under the mean plasma radioactivity concentration-time curves up to the time of the last quantifiable sample (AUC0-t) were estimated by the linear trapezoidal rule. Areas under the mean plasma radioactivity concentration-time curves to infinite time (AUC0-inf) were calculated using the expression: AUC0-inf = AUC0-t + Ct/λz, where Ct is the last measurable concentration and λz is the elimination rate constant estimated using log-linear regression during the terminal elimination phase. Statistical evaluation was limited to basic expressions of variation such as means and standard deviation.

Series [5] can be described thus: Plasma protein binding assay, dog plasma. The class given is in vitro ADME. The settings on record: data not shown.
Series [6] is described as follows: QWBA tissue radioactivity, single oral 30 mg/kg, female partially pigmented rats (Group 3); Table 6 columns c2-c8 = 0.5, 2, 4, 8, 24, 72, 168 h. Format: in vivo, rat. The settings on record: 2 h. The method, then: as §1, §2

On to `O=C(O)c1ccc(F)c(F)c1Nc1ccc(I)cc1Cl` [zapnometinib, 2-(2-Chloro-4-iodophenylamino)-3,4-difluorobenzoic acid], for which the Protein binding result in series [1] and in series [5] was “high protein binding” each time. For the same compound, the Unbound fraction result in series [1] and in series [5] was “very low” each time. In addition, the “Plasma concentrations relative to those of CI-1040” value in series [2] was “approximately 30 fold”. Besides, the “Radioactivity in all remaining tissues” value in series [3] (2 h, male) is on record as at most 70.0 μg equivs/g; in series [6] it was at most 74.4 µg equivs/g. In addition, the “Penetration into the brain” value in series [3] (whole body autoradiography) is recorded as “low”. The “Mean plasma radioactivity concentration” value in series [4] (48 h post dose, females) worked out at 0.650 μg equivs/ml; in series [4] (48 h post dose, males), 0.724 μg equivs/ml; in series [4] (168 h post dose, females) it was 0.049 μg equivs/ml; in series [4] (168 h post dose, males), 0.054 μg equivs/ml. The “Plasma radioactivity at 168 h as % of Cmax” value in series [4] (females) is listed as around 0.04%; in series [4] (males), around 0.06%. The “AUC0-t females versus males” value in series [4] (total plasma radioactivity) was found to be 1.4 fold. Moreover, the “Cmax females versus males” value in series [4] (total plasma radioactivity) turned out to be 1.5 fold.
